The source of these data is PMC6923382, “Small molecules that inhibit TNF signalling by stabilising an asymmetric form of the trimer” (Nature Communications, 2019).

Several values for one entry are separate records, joined by “and”; a condition that tells them apart may be missing. Equal values may be shown once. Entries after “also recorded” stand apart in the source; their conditions may differ.

The test system of one assay is Mouse TNF superfamily. The assay is described as follows: Thermal denaturation, mouse TNF superfamily. As to conditions: 100 µM compound, 0.1 mg/mL sample; single experiment. In kind it is binding. As to the method: (§1) A fluorescence probed thermal denaturation assay was performed to assess the effect of the compounds on the thermal stability of TNF (or other members of the TNF family) as a measure of compound binding. The reaction mixture contained 5 µL of 30× SYPRO® Orange dye (Invitrogen) and 5 µL of TNF (at 1 mg/mL), 37.5 μL PBS, pH 7.4 and 2.5 μL of compound (at 2 mM in DMSO). The mixture (10 µL) was dispensed in quadruplicate into a 384 PCR optical well plate and was run on a 7900HT Fast Real-Time PCR System ([…]). The PCR System heating device was set at 20 °C to 99 °C with a ramp rate of 1.1 °C min^−1; fluorescence changes in the wells were monitored by a CCD device. The fluorescence intensity increase was plotted as a function of temperature and the Tm calculated as the midpoint of this denaturation curve (determined as the point of inflection).
Compound based thermal stability increase (oC)
100 µM compound 0.1 mg/mL sample […]
compared to human TNF. Human proteins were provided through a collaboration with Beryllium. Data from a single experiment. […]
compared to mouse TNF. Mouse proteins were purchased from R&D Systems. (Note: No Tm for Lymphotoxin (LTa) was detected in this assay making a change in Tm unmeasurable).
Data from a single experiment.
(also on this page, place not known: 16.0Thermal 10Thermal stability difference (oC) stability increase (oC))

The target of another assay is T1, TNF (L57F) (Homo sapiens, UniProt P01375, L133F).
T1 construct: Human TNF (CID2043, UniProt P01375 residues 77–233); 6XHis-Smt3 (N, cleaved yes); host or cells: E. coli
T1 sequence (P01375 77-233 L133F): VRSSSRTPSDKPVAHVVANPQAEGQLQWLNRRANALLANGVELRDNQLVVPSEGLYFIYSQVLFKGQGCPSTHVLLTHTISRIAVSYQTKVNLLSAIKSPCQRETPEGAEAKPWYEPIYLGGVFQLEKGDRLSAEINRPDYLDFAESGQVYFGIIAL
The assay is described as follows: HEK reporter gene assay, L57F TNF. Format: cell-based. The note with it: 10 pM L57F TNF; HEK NFκΒ reporter. How it is done: Stimulation of HEK-293 cells by TNF leads to activation of the NF-κB pathway. The HEK-Blue^TM CD40L SEAP (secreted embryonic alkaline phosphatase) reporter cell line used to determine TNF activity (InvivoGen, #hkb-CD40, cells were described as mycoplasma free when purchased and were tested using Mycoalert [Lonza] after each batch of assay vial preparation). Compounds were titrated in DMSO and pre-incubated with TNF at a concentration giving half maximal response (10 pM for human or 20 pM for mouse) or the anti-human TNFR1 agonist antibody (R&D Systems. #AF 225) for 1 h. Cells were added to the compound/stimulus mixture and further incubated for 18 h. SEAP was measured using the colorimetric substrate HEK-Blue Detect^TM or QUANTI-Blue^TM from InvivoGen. Percentage inhibitions for compound dilutions were calculated between a DMSO control and maximum inhibition (by excess anti-TNF biologic, or NF-κB inhibitor–TPCA-1 [Tocris #2559, R&D Systems]). The IC50 was determined as the point of inflexion between the fitted minimum and maximum of the compound dose response curve, calculated using 4PL fitted curve. Mean IC50s are reported as a mean of at least two experiments. Dose response curves for TNF and the anti-human TNFR1 agonist antibody are shown in Supplementary Fig. 9. […]
In this assay reduction is luminescence is due to cell killing by TNF and inhibition causes increased luminescence. […]

Assay [1] addresses T2, mouse TNF (Mus musculus, UniProt P06804).
T2 construct: stabilise an asymmetrical form of the soluble TNF trimer
T2 sequence (P06804 80-235 limits assumed): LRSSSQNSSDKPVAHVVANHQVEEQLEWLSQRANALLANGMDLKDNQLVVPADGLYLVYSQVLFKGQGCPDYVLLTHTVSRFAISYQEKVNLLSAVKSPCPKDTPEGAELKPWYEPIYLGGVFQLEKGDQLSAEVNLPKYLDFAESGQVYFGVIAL
Description: TNF L929 cytotoxicity assay, mouse TNF. Format: cell-based. As to conditions: for Luminescence units: Mouse TNF, L929. How it is done: TNF (human or mouse) kills L929 cells which have been compromised by incubation with a sub-lethal concentration of actinomycin D, and this effect is inhibited with TNF biologics. Compounds were titrated in DMSO, and then pre-incubated with human or mouse TNF for 1 h. L929 cells (ECACC, #85011425) in media containing actinomycin D (2 µg/mL) were added to the TNF inhibitor mixture and incubated for 18 h. L929 cytotoxicity was measured by the addition of CellTitreGlo (Promega). Luminescence was measured after an incubation of at least 20 min in the dark. Percentage inhibition was calculated between unstimulated wells (maximum signal), and wells with TNF, DMSO and actinomycin D (minimum signal). The IC50 was calculated as the point of inflexion for a 4PL fitted curve. Mean IC50s are reported as a mean of at least two experiments. Cells were described as mycoplasma-free when purchased and were tested using Mycoalert (Lonza) after each batch of assay vial preparation.

Assay [2] deals with T2, mouse TNF. Description: Mouse TNF induced neutrophil recruitment in vivo. As to conditions: for CD45+ GR-1+ cells/mL in the peritoneal cavity: mouse TNF, individual mice. As to the method:
All in vivo studies were reviewed by an internal Ethical Review Body (ERB) and conducted in accordance with the Animals (Scientific Procedures) Act 1986, EU Directive 2010/63/EU. […] Anti-TNFα biologics, CDP571[21] (10 mg/kg) and etanercept (30 mg/kg), diluted in PBS, were dosed intravenously prior to human and mouse TNF challenge. Two hours after the TNF challenge, mice were sacrificed and the peritoneal cavity lavaged with 3 mL of FACS buffer. An aliquot (0.3 mL) of lavage fluid was used to assess the number CD45^+GR1^+ cells by flow cytometry. Briefly, the cells were treated with ACK lysis buffer, washed and suspended in FACS buffer prior to staining with FITC anti-mouse CD45 and PE anti-mouse GR1. Data are shown as mean ± standard error of the number of CD45^+GR-1^+ cells. Statistical significance (*p < 0.05, **p < 0.01, ****p < 0.0001) was determined using one-way ANOVA with Dunnett’s multiple comparison test.

The target in a further assay is TNF (Homo sapiens, UniProt P01375). The assay is described as follows: Thermal denaturation assay of thermal stability. In kind it is binding. On the set-up: stabilise an asymmetrical form of the soluble TNF trimer. How it is done: as §1
Chain of TNF (P01375 77-233 limits assumed): as the sequence (P01375 77-233 L133F) above, with F57L counted along it

For the compound `Cc1ccc(C)c(Cn2c(C(O)c3ccncc3)nc3ccc(-c4cnn(C)c4)cc32)c1` (stereo not shown) [UCB-9260], the “change in Tm of other mouse TNF superfamily members” value in the assay with Mouse TNF superfamily was “negligible effect”. Moreover, the “inhibition of L57F TNF” value against TNF (L57F) is “did not inhibit; also recorded: no activity”. The Luminescence units at mouse TNF [1] (compound -logM 4.6) was determined as 12797 Luminescence units; at mouse TNF [1] (compound -logM 5.08), 13525 Luminescence units; on mouse TNF [1] (compound -logM 5.56), 13101 Luminescence units; on mouse TNF [1] (compound -logM 6.03), 12546 Luminescence units; at mouse TNF [1] (compound -logM 6.51), 10886 Luminescence units; at mouse TNF [1] (compound -logM 6.99) it was 9129 Luminescence units. The Luminescence units on mouse TNF [1] (compound -logM 7.46) came out at 7403 Luminescence units; at mouse TNF [1] (compound -logM 7.94), 7468 Luminescence units; on mouse TNF [1] (compound -logM 8.42), 7718 Luminescence units; at mouse TNF [1] (compound -logM 8.9) it was 5980 Luminescence units. Besides, at mouse TNF [1] (mouse TNF, mouse L929 cells + actinomycin D, read-out: geometric mean IC50, TNF-dependent cytotoxicity), the 50% inhibitory concentration (IC50) was found to be 120 nM. The “CD45+ GR-1+ cells/mL in the peritoneal cavity” value at mouse TNF [2] (10mg/kg) is 36683.8 cells/mL and 23446.5 cells/mL and 65459.0 cells/mL and 42287.7 cells/mL and 32860.3 cells/mL and 46170.3 cells/mL and 36366.5 cells/mL; on mouse TNF [2] (30mg/kg), 68892.4 cells/mL and 37218.6 cells/mL and 45217.2 cells/mL and 30219.5 cells/mL and 27497.1 cells/mL and 16597.5 cells/mL; at mouse TNF [2] (100mg/kg), 11514.8 cells/mL and 33134.0 cells/mL and 13657.2 cells/mL and 18518.9 cells/mL and 17977.4 cells/mL and 18837.9 cells/mL and 21785.8 cells/mL and 22316.6 cells/mL; on mouse TNF [2] (300mg/kg), 6821.7 cells/mL and 12941.2 cells/mL and 5881.9 cells/mL and 6788.4 cells/mL and 5482.5 cells/mL and 47242.4 cells/mL and 15367.3 cells/mL and 2338.2 cells/mL. At mouse TNF [2] (oral, murine TNF i.p., CD45+GR1+ cells), the “dose with significant inhibition of neutrophil recruitment” value is on record as 10 mg/kg. The “Tm difference (hTNF + compound) - (hTNF+DMSO)” value on TNF (DMSO 5%) was determined as 17.3 °C. Besides, on TNF (hTNF + DMSO (5%) + compound, n=4 replicates), the “Tm (mean ± SD)” value worked out at 78.0 ± 0.7 °C. For the same compound, the Tm1 Average at TNF (inhouse hTNF 5% DMSO + compound, 4 wells) came out at 78 °C. In addition, the “Unreviewed - Tm1” value on TNF (single wells, inhouse hTNF 5% DMSO + compound, listed as 1449260-000, in °C) was 77.1 and 77.9 and 78.1 and 78.7.

The IC50 is the midpoint of a concentration-inhibition curve.
